Experimental data: patent US20100305150A1, “TUBEROUS SCLEROSIS TREATMENT” (priority 2006, published 2010)

How the values were obtained:
[1] = tested on: Tsc1−/− and Tsc2−/− and control MEF cell lines; experiment: Growth of Tsc1−/−, Tsc2−/− and control MEF cell lines, MTT assay; type: cell-based; settings: Tsc1 null and control MEF cell lines
From the text: MEF cell lines are generated in which there is loss of either Tsc1 or Tsc2 and which have a profound decrease in signaling through Akt. Decreased Akt activation may be seen in response to all stimuli, including serum, PDGF, EGF, insulin, and IGF1. […] In addition, over-expression of PDGFRα by short or long-term transfection leads to increased Akt phosphorylation and stimulation in response to multiple growth factors.
Signaling in Tsc 1 or Tsc 2 null MEFs in response to IGF1 in combination with a Compound A may be explored. Wortmannin may be used as an […].
Growth of Tsc1−/− and Tsc2−/− and control MEF cell lines in serum may be assessed in triplicate wells of cells plated at uniform density using the MTT assay. Growth responses are normalized individually for each cell line, to growth in the absence of any stimulation.

[2] = tested on: kidney and liver tumors in Tsc1+/− mice; experiment: Treatment trial in Tsc1+/− mouse model of Tsc (1 month study); type: in vivo; settings: female mice only
Description: (§1) Also trials of treatment with a Compound A in mouse models of Tsc may be carried out (1 month study). A first trial is performed in the Tsc1+/− mice, in which there is a sex effect on tumor development, so that female mice are studied only. A second trial is performed in Tsc2+/− mice, in which the use of the carcinogen ENU is performed to enhance and accelerate the rate of tumor formation in the kidney.

[3] = tested on: kidney and liver tumors in Tsc2+/− mice; experiment: Treatment trial in Tsc2+/− mouse model of Tsc with carcinogen ENU (1 month study); type: in vivo; settings: ENU to accelerate kidney tumor formation
Description: as §1

[4] = tested on: NF1 deficient cell or animals (mice) models; experiment: Activity in neurofibromatosis, NF1 deficient cell or animal models
From the text: Activity in neurofibromatosis may be determined in NF1 deficient cell or animals (mice) models, e.g. analogously to TSC deficient cell or animals (mice) models.

CO[C@H]1C[C@@H]2CC[C@@H](C)[C@@](O)(O2)C(=O)C(=O)N2CCCC[C@H]2C(=O)O[C@H]([C@H](C)C[C@@H]2CC[C@@H](OCCO)[C@H](OC)C2)CC(=O)[C@H](C)/C=C(\C)[C@@H](O)[C@@H](OC)C(=O)[C@H](C)C[C@H](C)/C=C/C=C/C=C/1C [Compound A, 40-O-(2-hydroxyethyl)-rapamycin]
growth response of the cells to IGF1 ([1]; IGF1 stimulation): blocks any growth response of the cells to IGF1 | growth of the cell lines (MTT assay) ([1]; serum or IGF1 stimulation, all conditions): significantly reduces growth under all conditions | reduction of kidney and liver tumors [2]: dramatic effect in reducing kidney and liver tumors | reduction of kidney and liver tumors [3]: dramatic effect in reducing kidney and liver tumors | activity in neurofibromatosis assays [4]: shows activity
